Consider four compounds from patent publication EP1171102B1, “ANHYDROUS TABLET OF RANITIDINE HYDROCHLORIDE WITH DOUBLE-LAYER COATING AND ITS COMPOSITION” (priority 1999, dated 2000).

Structures can show the parent of a compound that is named as a salt.

Data set [1] in a line: Hygroscopicity and conversion of the crystalline forms on storage. The data set is classed as physicochemical. The settings on record: product made by the method of the invention; chemico-physical analysis.
The conditions of data set [2]: cited from earlier work; for hygroscopicity: comparison of Form 1 and Form 2, hydrochloride.
The conditions of data set [3]: cited from earlier work.

Regarding `CNC(=C[N+](=O)[O-])NCCSCc1ccc(CN(C)C)o1.Cl` [anhydrous ranitidine hydrochloride], the “conversion into the allomorphous Form 2 during the storage” value in data set [1] was “not gradually converted during the storage into the allomorphous Form 2”.

With `CNC(=C[N+](=O)[O-])NCCSCc1ccc(CN(C)C)o1` [ranitidine hydrochloride Form 1, ranitidine hydrochloride], in data set [2], the hygroscopicity entry is given as “more hygroscopic than Form 2”. The “conversion into Form 2” value in data set [2] (room temperature, in the presence of moisture) is “may be converted in small amounts in the presence of moisture into Form 2”.

As for `CNC(=C[N+](=O)[O-])NCCSCc1ccc(CN(C)C)o1` [ranitidine hydrochloride Form 2, ranitidine hydrochloride], the hygroscopicity entry in data set [2] was “less hygroscopic than Form 1”.

Take `CNC(=C[N+](=O)[O-])NCCSCc1ccc(CN(C)C)o1` [ranitidine hydrochloride]: the water solubility in data set [3] (both allomorphous forms (Form 1 and Form 2)) is 900 mg in 1 ml of water. Also, the solubility entry in data set [3] (in water, at 25° C) was “over 900 mg/ml”.
